Measured values: the NIST ThermoML archive (doi:10.1016/j.jct.2016.02.007)

Assay: wn = mass fraction of the nth substance listed
Conditions: 101.3 kPa, Liquid, Vibrating tube method

CN(C)CCCO [3-dimethylamino-1-propanol] + O
mass density [kg/m3]
Conditions | w1 = 0.1 | w1 = 0.2 | w1 = 0.3 | w1 = 0.4 | w1 = 0.5 | w1 = 0.6 | w1 = 0.7 | w1 = 0.8 | w1 = 0.9 | w1 = 1
293.15 K | 992.9 | 989.7 | 986.6 | 981.7 | 975.1 | 962.4 | 948.3 | 933.1 | 910.9 | 886.7
298.15 K | 991.5 | 987.7 | 983.9 | 978.3 | 971.4 | 958.5 | 944.3 | 929.2 | 907.1 | 883
303.15 K | 989.8 | 985.5 | 980.9 | 974.9 | 967.6 | 954.6 | 940.2 | 925.2 | 903.2 | 879.1
308.15 K | 987.9 | 983.1 | 978 | 971.4 | 963.8 | 950.6 | 936.1 | 921.2 | 899.2 | 875.1
313.15 K | 985.9 | 980.4 | 974.8 | 967.8 | 959.9 | 946.5 | 932 | 917.1 | 895.2 | 871.2
318.15 K | 983.6 | 977.3 | 971.6 | 964.2 | 956 | 942.4 | 927.8 | 912.9 | 891.1 | 867.2
323.15 K | 981.2 | 975 | 968.2 | 960.4 | 952.1 | 938.2 | 923.6 | 908.7 | 887 | 863.1
328.15 K | 978.6 | 972 | 964.7 | 956.7 | 948 | 934 | 919.3 | 904.5 | 882.9 | 859.1
333.15 K | 975.9 | 968.9 | 961 | 952.8 | 943.9 | 929.7 | 915 | 900.2 | 878.7 | 855
338.15 K | 973.1 | 965.8 | 957.9 | 948.9 | 939.8 | 925.4 | 910.6 | 895.8 | 874.4 | 850.8
343.15 K | 970.1 | 962.5 | 954.2 | 944.9 | 935.6 | 921 | 906.2 | 891.4 | 870.1 | 846.7
